Results as given in patent US20230346961A1, “GLP-1 AND GIP RECEPTOR CO-AGONISTS” (Novo Nordisk A/S, priority 2020, published 2023).
Starred links: 1 amine or outer side, 2 acyl side, 3 side chain; linkers in the order of their positions; H or OH if unused. Non-standard residues stand in square brackets, D forms with d. Residues, ends and D or L forms follow the SMILES beside them. Groups on a side chain read outwards from the residue. *: point of attachment. C20 diacid = O=C(O)CCCCCCCCCCCCCCCCCCC(=O)*; C18 diacid = O=C(O)CCCCCCCCCCCCCCCCC(=O)*; γGlu = O=C(O)[C@H](CCC(=O)[*:2])N[*:1]; εLys = N[C@@H](CCCCN[*:1])C(=O)[*:2]; Trx = NC[C@H]1CC[C@H](C(=O)O)CC1; AEEA = NCCOCCOCC(=O)O; Aib = CC(C)(N)C(=O)O

Legend:
mouse GLP-1 receptor = target: T1, mouse GLP-1 receptor (Mus musculus, UniProt O35659)
T1 sequence (O35659 22-463): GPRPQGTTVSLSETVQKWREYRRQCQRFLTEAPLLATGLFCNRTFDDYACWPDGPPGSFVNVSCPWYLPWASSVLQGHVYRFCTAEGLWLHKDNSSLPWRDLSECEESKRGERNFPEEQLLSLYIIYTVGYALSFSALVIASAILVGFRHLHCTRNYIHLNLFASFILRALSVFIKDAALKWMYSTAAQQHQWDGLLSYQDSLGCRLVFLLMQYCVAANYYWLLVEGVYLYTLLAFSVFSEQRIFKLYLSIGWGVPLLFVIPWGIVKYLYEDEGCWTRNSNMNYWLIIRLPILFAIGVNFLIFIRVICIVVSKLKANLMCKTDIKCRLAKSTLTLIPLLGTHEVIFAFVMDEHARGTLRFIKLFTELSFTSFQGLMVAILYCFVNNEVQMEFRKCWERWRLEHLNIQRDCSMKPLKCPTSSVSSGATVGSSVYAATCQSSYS

human GLP-1 receptor = human GLP-1 receptor (Homo sapiens, UniProt P43220); assay: cell-based; settings: hGLP-1R
mouse GIP receptor = target: T2, mouse GIP receptor (Mus musculus, UniProt Q0P543); assay: cell-based
T2 sequence (Q0P543 19-460): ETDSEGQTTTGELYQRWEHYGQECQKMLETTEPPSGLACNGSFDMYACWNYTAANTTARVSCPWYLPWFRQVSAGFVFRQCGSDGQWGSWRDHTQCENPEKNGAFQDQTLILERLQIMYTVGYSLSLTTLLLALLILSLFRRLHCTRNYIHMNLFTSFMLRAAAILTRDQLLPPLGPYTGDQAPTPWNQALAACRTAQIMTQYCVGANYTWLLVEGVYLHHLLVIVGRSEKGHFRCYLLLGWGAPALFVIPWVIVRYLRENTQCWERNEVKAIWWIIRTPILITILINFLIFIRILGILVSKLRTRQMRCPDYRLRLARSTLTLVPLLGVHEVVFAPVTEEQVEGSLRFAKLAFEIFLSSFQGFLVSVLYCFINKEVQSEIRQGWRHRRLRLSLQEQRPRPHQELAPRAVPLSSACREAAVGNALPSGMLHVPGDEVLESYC
Protocol: The in vitro functional potency is the measure of target receptor activation in a whole cell assay.
In vitro functional potency was determined by measuring the response of the target receptor in a reporter gene assay in individual cell lines. […] When the respective receptor is activated, it results in the production of cAMP, which in turn results in expression of the luciferase protein. When assay incubation is completed, luciferase substrate (luciferin) is added resulting in the enzymatic conversion of luciferin to oxyluciferin and producing bioluminescence. The luminescence is measured as the readout for the assay.
The cells lines used in these assays were BHK cells with BHKTS13 as a parent cell line. The cell lines were derived from a clone containing the CRE luciferase element and were established by further transfection with the respective receptor to obtain the relevant cell line.
The cells were cultured at 37° C. with 5% CO2 in Cell Culture Medium. They were aliquoted and stored in liquid nitrogen. The cells were kept in continuous culture and were seeded out the day before each assay.
GLP-1R and GcgR Cell Culture Medium consisted of DMEM medium with 10% FBS, 500 μg/mL G418, and 300 μg/mL hygromycin. GIPR Cell Culture Medium consisted of DMEM medium with 10% FBS, 400 μg/mL G418, and 300 μg/mL hygromycin. Assay Buffer consisted of DMEM w/o phenol red, 10 mM Hepes, 1×Glutamax, 1% ovalbumin, and 0.1% Pluronic F-68 with the addition of HSA at twice the final assay concentration.
• 1) Cells were plated at 5000 cells/well and incubated overnight in the assay plate. • 2) Cells were washed once in DPBS. • 3) Stocks of the test compounds and reference compounds in concentrations ranging from 100-300 μM were diluted 1:150 in Assay Buffer. Compounds were then diluted 1:10 in column 1 of a 96 deep well dilution plate and then carried across the row creating a 3.5 fold, 12 point dilution curve. • 4) Assay Buffer (50 μl aliquot) with or without HSA was added to each well in the assay plate. • 5) A 50 μl aliquot of compound or blank was transferred from the dilution plate to the assay plate containing the Assay Buffer with or without HSA. • 6) The assay plate was incubated for 3 h in a 5% CO2 incubator at 37° C. 7) The cells were washed once with DPBS. • 8) A 100 μl aliquot of DPBS was added to each well of the assay plate. • 9) A 100 μl aliquot of steadylite plus reagent (light sensitive) was added to each well of the assay plate. • 10) Each assay plate was covered with aluminum foil to protect it from light and shaken at 250 RPM for 30 min at room temperature. • 11) Each assay plate was read in a microtiter plate reader.
The data from the microtiter plate reader was first regressed in an Excel in order to calculate the x-axis, log scale concentrations based on the individual test compound's stock concentration and the dilutions of the assay. […] The software performs a non-linear regression (log(agonist) vs response). A minimum of two replicates was measured for each sample. The reported values are averages of the replicates.

human GLP-1 receptor, sequence (P43220 24-463): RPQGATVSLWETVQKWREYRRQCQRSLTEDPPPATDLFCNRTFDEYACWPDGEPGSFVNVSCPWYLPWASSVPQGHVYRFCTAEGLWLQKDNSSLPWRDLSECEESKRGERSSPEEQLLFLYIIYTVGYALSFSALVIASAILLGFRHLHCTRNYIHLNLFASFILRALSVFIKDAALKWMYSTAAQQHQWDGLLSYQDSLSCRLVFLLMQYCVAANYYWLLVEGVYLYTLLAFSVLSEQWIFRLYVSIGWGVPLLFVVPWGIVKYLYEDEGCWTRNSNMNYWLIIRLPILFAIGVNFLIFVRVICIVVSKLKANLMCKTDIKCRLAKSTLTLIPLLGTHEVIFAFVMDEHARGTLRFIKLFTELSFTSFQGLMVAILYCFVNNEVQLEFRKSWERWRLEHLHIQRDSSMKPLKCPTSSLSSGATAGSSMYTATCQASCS

Compound | EC50 (mouse GLP-1 receptor) | EC50 (human GLP-1 receptor; CRE Luc 0% HSA EC50, 0% HSA) | EC50 (human GLP-1 receptor; CRE Luc 1% HSA EC50, 1% HSA) | EC50 (mouse GIP receptor)
CC[C@H](C)[C@H](NC(=O)[C@H](CO)NC(=O)[C@H](Cc1ccc(O)cc1)NC(=O)[C@H](CC(=O)O)NC(=O)[C@H](CO)NC(=O)[C@@H](NC(=O)[C@H](Cc1ccccc1)NC(=O)[C@@H](NC(=O)CNC(=O)[C@H](CCC(=O)O)NC(=O)C(C)(C)NC(=O)[C@@H](N)Cc1ccc(O)cc1)[C@@H](C)O)[C@@H](C)O)C(=O)N[C@@H](Cc1ccc(O)cc1)C(=O)N[C@@H](CC(C)C)C(=O)N[C@@H](CCC(=O)O)C(=O)N[C@@H](CCC(=O)O)C(=O)N[C@@H](CCC(N)=O)C(=O)N[C@@H](C)C(=O)N[C@@H](C)C(=O)NC(C)(C)C(=O)N[C@@H](CCCCNC(=O)COCCOCCNC(=O)COCCOCCNC(=O)CC[C@H](NC(=O)[C@H]1CC[C@H](CNC(=O)CCCCCCCCCCCCCCCCCCC(=O)O)CC1)C(=O)O)C(=O)N[C@@H](Cc1ccccc1)C(=O)N[C@H](C(=O)N[C@@H](CC(N)=O)C(=O)N[C@@H](Cc1c[nH]c2ccccc12)C(=O)N[C@@H](CC(C)C)C(=O)N[C@@H](CC(C)C)C(=O)N[C@@H](C)C(=O)NCC(=O)NCC(=O)N1CCC[C@H]1C(=O)N[C@@H](CO)C(=O)N[C@@H](CO)C(=O)NCC(=O)N[C@@H](C)C(=O)N1CCC[C@H]1C(=O)N1CCC[C@H]1C(=O)N1CCC[C@H]1C(=O)N[C@@H](CO)C(N)=O)C(C)C [Compound 25] (H-Y[Aib]EGTFTSDYSIYLEEQAA[Aib]K([AEEA-AEEA-γGlu-Trx-C20 diacid])FVNWLLAGGPSSGAPPPS-NH2; N-terminus assumed) | 0.0029 nM | 0.0048 nM | 0.602 nM | 0.34 nM
CC[C@H](C)[C@H](NC(=O)[C@H](CO)NC(=O)[C@@H](NC(=O)[C@H](CC(=O)O)NC(=O)[C@H](CO)NC(=O)[C@@H](NC(=O)[C@H](Cc1ccccc1)NC(=O)[C@@H](NC(=O)CNC(=O)[C@H](CCC(=O)O)NC(=O)C(C)(C)NC(=O)[C@@H](N)Cc1c[nH]cn1)[C@@H](C)O)[C@@H](C)O)C(C)C)C(=O)N[C@@H](Cc1ccc(O)cc1)C(=O)N[C@@H](CC(C)C)C(=O)N[C@@H](CC(=O)O)C(=O)N[C@@H](CCCCN)C(=O)N[C@@H](CCC(N)=O)C(=O)N[C@@H](C)C(=O)N[C@@H](C)C(=O)NC(C)(C)C(=O)N[C@@H](CCCCNC(=O)[C@@H](N)CCCCNC(=O)[C@@H](N)CCCCNC(=O)CC[C@H](NC(=O)CCCCCCCCCCCCCCCCC(=O)O)C(=O)O)C(=O)N[C@@H](Cc1ccccc1)C(=O)N[C@H](C(=O)N[C@@H](CC(N)=O)C(=O)N[C@@H](Cc1c[nH]c2ccccc12)C(=O)N[C@@H](CC(C)C)C(=O)N[C@@H](CC(C)C)C(=O)N[C@@H](C)C(=O)NCC(=O)NCC(=O)N1CCC[C@H]1C(=O)N[C@@H](CO)C(=O)N[C@@H](CO)C(=O)NCC(=O)N[C@@H](C)C(=O)N1CCC[C@H]1C(=O)N1CCC[C@H]1C(=O)N1CCC[C@H]1C(=O)N[C@@H](CO)C(N)=O)C(C)C [Compound 12] (H-H[Aib]EGTFTSDVSIYLDKQAA[Aib]K([εLys-εLys-γGlu-C18 diacid])FVNWLLAGGPSSGAPPPS-NH2; N-terminus assumed) | 0.0022 nM | 0.0029 nM |  | > 10 nM
CC[C@H](C)[C@H](NC(=O)[C@H](CO)NC(=O)[C@H](Cc1ccc(O)cc1)NC(=O)[C@H](CC(=O)O)NC(=O)[C@H](CO)NC(=O)[C@@H](NC(=O)[C@H](Cc1ccccc1)NC(=O)[C@@H](NC(=O)CNC(=O)[C@H](CCC(=O)O)NC(=O)C(C)(C)NC(=O)[C@@H](N)Cc1ccc(O)cc1)[C@@H](C)O)[C@@H](C)O)C(=O)N[C@@H](Cc1ccc(O)cc1)C(=O)N[C@@H](CC(C)C)C(=O)N[C@@H](CC(=O)O)C(=O)N[C@@H](CCCCN)C(=O)N[C@@H](CCC(N)=O)C(=O)N[C@@H](C)C(=O)N[C@@H](C)C(=O)NC(C)(C)C(=O)N[C@@H](CCC(=O)O)C(=O)N[C@@H](Cc1ccccc1)C(=O)N[C@H](C(=O)N[C@@H](CC(N)=O)C(=O)N[C@@H](Cc1c[nH]c2ccccc12)C(=O)N[C@@H](CC(C)C)C(=O)N[C@@H](CC(C)C)C(=O)N[C@@H](C)C(=O)NCC(=O)NCC(=O)N1CCC[C@H]1C(=O)N[C@@H](CO)C(=O)N[C@@H](CO)C(=O)NCC(=O)N[C@@H](C)C(=O)N1CCC[C@H]1C(=O)N1CCC[C@H]1C(=O)N1CCC[C@H]1C(=O)N[C@@H](CO)C(=O)N[C@@H](CCCCNC(=O)COCCOCCNC(=O)COCCOCCNC(=O)CC[C@H](NC(=O)CCCCCCCCCCCCCCCCC(=O)O)C(=O)O)C(N)=O)C(C)C [Compound 3] |  | 0.0134 nM | 0.606 nM | 
CC[C@H](C)[C@H](NC(=O)[C@H](CO)NC(=O)[C@H](Cc1ccc(O)cc1)NC(=O)[C@H](CC(=O)O)NC(=O)[C@H](CO)NC(=O)[C@@H](NC(=O)[C@H](Cc1ccccc1)NC(=O)[C@@H](NC(=O)CNC(=O)[C@H](CCC(=O)O)NC(=O)C(C)(C)NC(=O)[C@@H](N)Cc1ccc(O)cc1)[C@@H](C)O)[C@@H](C)O)C(=O)N[C@@H](Cc1ccc(O)cc1)C(=O)N[C@@H](CC(C)C)C(=O)N[C@@H](CC(=O)O)C(=O)N[C@@H](CCCCN)C(=O)N[C@@H](CCC(N)=O)C(=O)N[C@@H](C)C(=O)N[C@@H](C)C(=O)NC(C)(C)C(=O)N[C@@H](CCCCNC(=O)CC[C@H](NC(=O)CC[C@H](NC(=O)CC[C@H](NC(=O)CCCCCCCCCCCCCCCCC(=O)O)C(=O)O)C(=O)O)C(=O)O)C(=O)N[C@@H](Cc1ccccc1)C(=O)N[C@H](C(=O)N[C@@H](CC(N)=O)C(=O)N[C@@H](Cc1c[nH]c2ccccc12)C(=O)N[C@@H](CC(C)C)C(=O)N[C@@H](CC(C)C)C(=O)N[C@@H](C)C(=O)NCC(=O)NCC(=O)N1CCC[C@H]1C(=O)N[C@@H](CO)C(=O)N[C@@H](CO)C(=O)NCC(=O)N[C@@H](C)C(=O)N1CCC[C@H]1C(=O)N1CCC[C@H]1C(=O)N1CCC[C@H]1C(=O)N[C@@H](CO)C(N)=O)C(C)C [Compound 6] (H-Y[Aib]EGTFTSDYSIYLDKQAA[Aib]K([γGlu-γGlu-γGlu-C18 diacid])FVNWLLAGGPSSGAPPPS-NH2; N-terminus assumed) | 0.0023 nM | 0.0059 nM |  | 
CC[C@H](C)[C@H](NC(=O)[C@H](CO)NC(=O)[C@H](Cc1ccc(O)cc1)NC(=O)[C@H](CC(=O)O)NC(=O)[C@H](CO)NC(=O)[C@@H](NC(=O)[C@H](Cc1ccccc1)NC(=O)[C@@H](NC(=O)CNC(=O)[C@H](CCC(=O)O)NC(=O)[C@H](C)NC(=O)[C@@H](Cc1ccc(O)cc1)NC(C)=O)[C@@H](C)O)[C@@H](C)O)C(=O)N[C@@H](Cc1ccc(O)cc1)C(=O)N[C@@H](CC(C)C)C(=O)N[C@@H](CC(=O)O)C(=O)N[C@@H](CCCCN)C(=O)N[C@@H](CCC(N)=O)C(=O)N[C@@H](C)C(=O)N[C@@H](C)C(=O)NC(C)(C)C(=O)N[C@@H](CCCCNC(=O)[C@@H](N)CCCCNC(=O)[C@@H](N)CCCCNC(=O)CC[C@H](NC(=O)CCCCCCCCCCCCCCCCC(=O)O)C(=O)O)C(=O)N[C@@H](Cc1ccccc1)C(=O)N[C@H](C(=O)N[C@@H](CC(N)=O)C(=O)N[C@@H](Cc1c[nH]c2ccccc12)C(=O)N[C@@H](CC(C)C)C(=O)N[C@@H](CC(C)C)C(=O)N[C@@H](C)C(=O)NCC(=O)NCC(=O)N1CCC[C@H]1C(=O)N[C@@H](CO)C(=O)N[C@@H](CO)C(=O)NCC(=O)N[C@@H](C)C(=O)N1CCC[C@H]1C(=O)N1CCC[C@H]1C(=O)N1CCC[C@H]1C(=O)N[C@@H](CO)C(N)=O)C(C)C [Compound 8] (Ac-[dY]AEGTFTSDYSIYLDKQAA[Aib]K([εLys-εLys-γGlu-C18 diacid])FVNWLLAGGPSSGAPPPS-NH2) | 0.017 nM |  |  | 
CC[C@H](C)[C@H](NC(=O)[C@H](CO)NC(=O)[C@H](Cc1ccc(O)cc1)NC(=O)[C@H](CC(=O)O)NC(=O)[C@H](CO)NC(=O)[C@@H](NC(=O)[C@H](Cc1ccccc1)NC(=O)[C@@H](NC(=O)CNC(=O)[C@H](CCC(=O)O)NC(=O)C(C)(C)NC(=O)[C@@H](N)Cc1ccc(O)cc1)[C@@H](C)O)[C@@H](C)O)C(=O)N[C@@H](Cc1ccc(O)cc1)C(=O)N[C@@H](CC(C)C)C(=O)N[C@@H](CC(=O)O)C(=O)N[C@@H](CCCCN)C(=O)N[C@@H](CCC(N)=O)C(=O)N[C@@H](C)C(=O)N[C@@H](C)C(=O)NC(C)(C)C(=O)N[C@@H](CCC(=O)O)C(=O)N[C@@H](Cc1ccccc1)C(=O)N[C@H](C(=O)N[C@@H](CC(N)=O)C(=O)N[C@@H](Cc1c[nH]c2ccccc12)C(=O)N[C@@H](CC(C)C)C(=O)N[C@@H](CC(C)C)C(=O)N[C@@H](C)C(=O)NCC(=O)NCC(=O)N1CCC[C@H]1C(=O)N[C@@H](CO)C(=O)N[C@@H](CO)C(=O)NCC(=O)N[C@@H](C)C(=O)N1CCC[C@H]1C(=O)N1CCC[C@H]1C(=O)N1CCC[C@H]1C(=O)N[C@@H](CO)C(=O)N[C@@H](CCCCNC(=O)CCCCCCCCCCCCCCCCC(=O)O)C(N)=O)C(C)C [Compound 2] |  | 0.0675 nM | 0.439 nM | 
